According to ChEMBL document CHEMBL5030514, “Discovery of Anti-TNBC Agents Targeting PTP1B: Total Synthesis, Structure-Activity Relationship, In Vitro and In Vivo Investigations of Jamunones” (J Med Chem, 2021):
The source made the active and inactive calls. The calls are words filed in the database; no cut-off is given here.

Assays:
MCF7 [1] = assay: Inhibition of PTP1B expression in human MCF7 cells by Western blot analysis; format: functional, cell-based
MDA-MB-231 [2] = assay: Antitumour activity against human MDA-MB-231 cells xenografted in BALB/c nude mouse assessed as upregulation of cleaved caspase-3 level at 15 to 30 mg/kg, ip administered once for every other day for 20 days by Western blot analysis; format: functional, organism-based; conditions: dose 15-30 mg/kg, time 20.0 day
MDA-MB-231 [3] = assay: Cell cycle arrest in human MDA-MB-231 cells assessed as downregulation of CDK2 expression by Western blot analysis; format: functional, cell-based
MDA-MB-231 [4] = assay: Cell cycle arrest in human MDA-MB-231 cells assessed as downregulation of cyclin E1 expression by Western blot analysis; format: functional, cell-based
MDA-MB-231 [5] = assay: Antiproliferative activity against human MDA-MB-231 cells measured by MTT assay; format: functional, cell-based
MCF7 [6] = assay: Effect on PI3K p85 expression in human MCF7 cells by Western blot analysis; format: functional, cell-based
MDA-MB-231 [7] = assay: Antitumour activity against human MDA-MB-231 cells xenografted in BALB/c nude mouse assessed as upregulation of cleaved poly(ADP-ribose) polymerase level at 15 to 30 mg/kg, ip administered once for every other day for 20 days by Western blot analysis; format: functional, organism-based; conditions: dose 15-30 mg/kg, time 20.0 day
MDA-MB-231 [8] = assay: Induction of apoptosis in human MDA-MB-231 cells assessed as increase in production of cleaved caspase-9 at 0.56 to 5 uM measured after 24 hrs by Western blot analysis; format: functional, cell-based; conditions: dose 0.56-5 µM
MCF7 [9] = assay: Induction of mitochondrial apoptosis in human MCF-7 cells assessed as total apoptotic cells by fluorescein isothiocyanate -annexin V/PI double staining based flow cytometric analysis (reference value: 4.4%); format: functional
MDA-MB-231 [10] = assay: Effect on PI3K p85 expression in human MDA-MB-231 cells by Western blot analysis; format: functional, cell-based
MDA-MB-231 [11] = assay: Induction of mitochondrial apoptosis in human MDA-MB-231 cells assessed as decrease in mitochondrial membrane potential levels at 5 uM measured after 24 hrs by flow cytometry; format: functional; parameters: scale not given: the % may be the effect or the level left
MDA-MB-231 [12] = assay: Cell cycle arrest in human MDA-MB-231 cells assessed as accumulation of cells at G2/M phase at 5 uM measured after 24 hrs by propidium iodide staining based flow cytometry (reference value: 27.5%); format: functional
MDA-MB-231 [13] = assay: Induction of apoptosis in human MDA-MB-231 cells assessed as decrease in Bcl-2 level at 0.56 to 5 uM measured after 24 hrs by Western blot analysis; format: functional, cell-based; conditions: dose 0.56-5 µM
MDA-MB-231 [14] = assay: Induction of mitochondrial apoptosis in human MDA-MB-231 cells assessed as early apoptotic cells at 5 uM measured after 24 hrs by FITC -annexin V/PI double staining based flow cytometric analysis (reference value: 2.2%); format: functional
MCF7 [15] = assay: Induction of mitochondrial apoptosis in human MCF-7 cells assessed as decrease in mitochondrial membrane potential levels at 5 uM measured after 24 hrs by flow cytometry; format: functional; parameters: scale not given: the % may be the effect or the level left
MCF7 [16] = assay: Induction of mitochondrial apoptosis in human MCF7 cells assessed as late apoptotic cells at 15 uM measured after 24 hrs by FITC -annexin V/PI double staining based flow cytometric analysis (reference value: 1.1%); format: functional
MDA-MB-231 [17] = assay: Effect on Akt expression in human MDA-MB-231 cells by Western blot analysis; format: functional, cell-based
MDA-MB-231 [18] = assay: Cell cycle arrest in human MDA-MB-231 cells assessed as downregulation of CDK6 expression by Western blot analysis; format: functional, cell-based
[19] = Selective index, ratio of IC50 for human 293T cells to IC50 of MDA-MB-231 cells; format: toxicity; conditions: 293T cells versus MDA-MB-231 cells, read-out: Selectivity Index
MDA-MB-231 [20] = assay: Antitumour activity against human MDA-MB-231 cells xenografted in BALB/c nude mouse assessed as upregulation of Bax level by western blot; format: functional, cell-based
MCF7 [21] = assay: Cell cycle arrest in human MCF-7 cells assessed as accumulation of cells at G0/G1 phase at 15 uM measured after 24 hrs by propidium iodide staining based flow cytometry (reference value: 51.7%); format: functional
MDA-MB-231 [22] = assay: Antitumour activity against human MDA-MB-231 cells xenografted in BALB/c nude mouse assessed as downregulation of Bcl-2 level at 15 to 30 mg/kg, ip administered once for every other day for 20 days by Western blot analysis; format: functional, organism-based; conditions: dose 15-30 mg/kg, time 20.0 day
MDA-MB-231 [23] = assay: Cell cycle arrest in human MDA-MB-231 cells assessed as upregulation of p21 level by Western blot analysis; format: functional, cell-based
[24] = Toxicity in human MDA-MB-231 cells xenografted in BALB/c nude mouse assessed as change in body weight at 15 to 30 mg/kg, ip administered once for every other day for 20 days relative to control; format: organism-based; conditions: in vivo, 480 h, dose 15-30 mg/kg, time 20 day
[25] = Selective index, ratio of IC50 for human 293T cells to IC50 of MCF-7 cells; format: toxicity; conditions: 293T cells versus MCF-7 cells, read-out: Selectivity Index
MDA-MB-231 [26] = assay: Induction of apoptosis in human MDA-MB-231 cells assessed as increase in production of cleaved caspase-3 at 0.56 to 5 uM measured after 24 hrs by Western blot analysis; format: functional, cell-based; conditions: dose 0.56-5 µM
MCF7 [27] = assay: Antiproliferative activity against human MCF-7 cells measured by MTT assay; format: functional, cell-based
MCF7 [28] = assay: Effect on Akt expression in human MCF7 cells by Western blot analysis; format: functional, cell-based
MCF7 [29] = assay: Induction of mitochondrial apoptosis in human MCF7 cells assessed as viable cells at 15 uM measured after 24 hrs by FITC -annexin V/PI double staining based flow cytometric analysis (reference value: 93.2%); format: functional; conditions: read-out: Activity
MCF7 [30] = assay: Induction of mitochondrial apoptosis in human MCF-7 cells assessed as chromatin shrinkage by Hoechst 33258 staining based fluorescence microscopic assay; format: functional, cell-based
MCF7 [31] = assay: Cell cycle arrest in human MCF-7 cells assessed as downregulation of cyclin D1 expression by Western blot analysis; format: functional, cell-based
MDA-MB-231 [32] = assay: Antitumour activity against human MDA-MB-231 cells xenografted in BALB/c nude mouse assessed as downregulation of cyclin D3 level at 15 to 30 mg/kg, ip administered once for every other day for 20 days by Western blot analysis; format: functional, organism-based; conditions: dose 15-30 mg/kg, time 20.0 day
MDA-MB-231 [33] = assay: Antitumour activity against human MDA-MB-231 cells xenografted in BALB/c nude mouse assessed as upregulation of p21 level at 15 to 30 mg/kg, ip administered once for every other day for 20 days by Western blot analysis; format: functional, organism-based; conditions: dose 15-30 mg/kg, time 20.0 day
MCF7 [34] = assay: Cell cycle arrest in human MCF7 cells assessed as accumulation of cells at G2/M phase at 15 uM measured after 24 hrs by propidium iodide staining based flow cytometry (reference value: 31%); format: functional
MDA-MB-231 [35] = assay: Cell cycle arrest in human MDA-MB-231 cells assessed as downregulation of cyclin D1 expression by Western blot analysis; format: functional, cell-based
MCF7 [36] = assay: Induction of mitochondrial apoptosis in human MCF7 cells assessed as early apoptotic cells at 15 uM measured after 24 hrs by FITC -annexin V/PI double staining based flow cytometric analysis (reference value: 2.4%); format: functional
MDA-MB-231 [37] = assay: Induction of apoptosis in human MDA-MB-231 cells assessed as upregulation of cleaved poly(ADP-ribose) polymerase level at 0.56 to 5 uM measured after 24 hrs by Western blot analysis; format: functional, cell-based; conditions: dose 0.56-5 µM
MDA-MB-231 [38] = assay: Antiproliferative activity against human MDA-MB-231 cells assessed as effect on cell viability at 0.56-5 uM for 24 hrs measured by MTT assay; format: functional, cell-based

Q: Which Activity (MCF7 [1]) does the source give for CCCC/C=C/CCCCCCCCCC1(O)CC(=O)c2c(O)c(C)c(O)c(C)c2O1 (stereo not drawn) here?
A: Active

Q: What about the Activity (MDA-MB-231 [2]) of the same compound?
A: Active

Q: And the Activity (MDA-MB-231 [3])?
A: Dose-Dependent Effect

Q: And the Activity (MDA-MB-231 [4])?
A: Dose-Dependent Effect

Q: And the IC50 (MDA-MB-231 [5])?
A: 6.79 µM

Q: And the Activity (MCF7 [6])?
A: inactive

Q: What about the Activity (MDA-MB-231 [7]) of the same compound?
A: Active

Q: And the Activity (MDA-MB-231 [8])?
A: Dose-Dependent Effect

Q: What about the Activity (MCF7 [9]) of the same compound?
A: 13.6%

Q: What about the Activity (MDA-MB-231 [10]) of the same compound?
A: inactive

Q: What about the Activity (MDA-MB-231 [11]) of the same compound?
A: 62.2%

Q: And the Activity (MDA-MB-231 [12])?
A: 18.5%

Q: And the Activity (MDA-MB-231 [13])?
A: Dose-Dependent Effect

Q: What about the Activity (MDA-MB-231 [14]) of the same compound?
A: 6.1%

Q: And the Activity (MCF7 [15])?
A: 68.7%

Q: And the Activity (MCF7 [16])?
A: 8.9%

Q: And the Activity (MDA-MB-231 [17])?
A: inactive

Q: What about the Activity (MDA-MB-231 [18]) of the same compound?
A: Dose-Dependent Effect

Q: And the selectivity ratio [19]?
A: 5.35

Q: And the Activity (MDA-MB-231 [20])?
A: Active

Q: What about the Activity (MCF7 [21]) of the same compound?
A: 66.8%

Q: And the Activity (MDA-MB-231 [22])?
A: Active

Q: What about the Activity (MDA-MB-231 [23]) of the same compound?
A: Dose-Dependent Effect

Q: And the Activity [24]?
A: Not Active

Q: What about the selectivity ratio [25] of the same compound?
A: 2.08

Q: What about the Activity (MDA-MB-231 [26]) of the same compound?
A: Dose-Dependent Effect

Q: And the IC50 (MCF7 [27])?
A: 17.5 µM

Q: And the Activity (MCF7 [28])?
A: inactive

Q: And the viability at 15 µM (MCF7 [29])?
A: 78.7%

Q: What about the Activity (MCF7 [30]) of the same compound?
A: Active

Q: And the Activity (MCF7 [31])?
A: Dose-Dependent Effect

Q: And the Activity (MDA-MB-231 [32])?
A: Active

Q: What about the Activity (MDA-MB-231 [33]) of the same compound?
A: Active

Q: And the Activity (MCF7 [34])?
A: 22.7%

Q: And the Activity (MDA-MB-231 [35])?
A: Dose-Dependent Effect

Q: What about the Activity (MCF7 [36]) of the same compound?
A: 7.8%

Q: And the Activity (MDA-MB-231 [37])?
A: Active

Q: What about the Activity (MDA-MB-231 [38]) of the same compound?
A: inactive
